Literature values in US8653307B2 (California Institute of Technology, priority 2011, dated 2014).

What was measured:
PI3Kα = PI3Kα (Homo sapiens, UniProt P42336)
[1] = test system: MDA-468 breast cancer line; details: read-out: IC50 (cytotoxicity)
CaCo (human colon) = CaCo (human colon) cells; read-out: IC50 (cytotoxicity)
LoVo (human colon) cells = details: read-out: IC50 (cytotoxicity)

Sequence of PI3Kα (P42336 whole entry): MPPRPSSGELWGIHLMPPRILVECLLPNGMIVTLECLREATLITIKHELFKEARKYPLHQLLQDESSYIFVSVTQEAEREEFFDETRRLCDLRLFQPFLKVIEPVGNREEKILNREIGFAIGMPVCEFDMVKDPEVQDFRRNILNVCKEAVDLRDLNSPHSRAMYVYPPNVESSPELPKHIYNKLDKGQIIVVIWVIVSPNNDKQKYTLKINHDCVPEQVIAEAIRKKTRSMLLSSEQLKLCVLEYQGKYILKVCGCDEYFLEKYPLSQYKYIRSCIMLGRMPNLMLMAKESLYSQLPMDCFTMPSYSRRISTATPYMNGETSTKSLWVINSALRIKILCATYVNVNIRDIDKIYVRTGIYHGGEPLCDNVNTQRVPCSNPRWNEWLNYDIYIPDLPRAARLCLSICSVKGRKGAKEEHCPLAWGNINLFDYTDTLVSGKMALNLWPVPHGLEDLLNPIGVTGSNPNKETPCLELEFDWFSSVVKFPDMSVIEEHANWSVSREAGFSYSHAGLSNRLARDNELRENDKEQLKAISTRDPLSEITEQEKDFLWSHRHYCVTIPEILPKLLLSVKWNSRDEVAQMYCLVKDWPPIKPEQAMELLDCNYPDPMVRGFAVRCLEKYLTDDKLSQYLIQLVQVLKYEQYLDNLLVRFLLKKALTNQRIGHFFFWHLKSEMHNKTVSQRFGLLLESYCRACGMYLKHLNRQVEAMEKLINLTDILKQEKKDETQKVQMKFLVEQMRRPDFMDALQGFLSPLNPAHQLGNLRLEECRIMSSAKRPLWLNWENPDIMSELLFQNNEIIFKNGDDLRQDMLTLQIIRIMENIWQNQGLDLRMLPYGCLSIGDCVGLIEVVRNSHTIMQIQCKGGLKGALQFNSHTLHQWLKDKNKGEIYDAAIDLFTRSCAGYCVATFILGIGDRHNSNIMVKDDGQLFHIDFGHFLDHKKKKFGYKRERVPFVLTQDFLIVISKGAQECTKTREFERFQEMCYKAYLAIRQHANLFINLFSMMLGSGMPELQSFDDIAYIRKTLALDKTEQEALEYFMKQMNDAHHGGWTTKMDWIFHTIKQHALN
Sequence of PI3Kα (P27986 whole entry partner): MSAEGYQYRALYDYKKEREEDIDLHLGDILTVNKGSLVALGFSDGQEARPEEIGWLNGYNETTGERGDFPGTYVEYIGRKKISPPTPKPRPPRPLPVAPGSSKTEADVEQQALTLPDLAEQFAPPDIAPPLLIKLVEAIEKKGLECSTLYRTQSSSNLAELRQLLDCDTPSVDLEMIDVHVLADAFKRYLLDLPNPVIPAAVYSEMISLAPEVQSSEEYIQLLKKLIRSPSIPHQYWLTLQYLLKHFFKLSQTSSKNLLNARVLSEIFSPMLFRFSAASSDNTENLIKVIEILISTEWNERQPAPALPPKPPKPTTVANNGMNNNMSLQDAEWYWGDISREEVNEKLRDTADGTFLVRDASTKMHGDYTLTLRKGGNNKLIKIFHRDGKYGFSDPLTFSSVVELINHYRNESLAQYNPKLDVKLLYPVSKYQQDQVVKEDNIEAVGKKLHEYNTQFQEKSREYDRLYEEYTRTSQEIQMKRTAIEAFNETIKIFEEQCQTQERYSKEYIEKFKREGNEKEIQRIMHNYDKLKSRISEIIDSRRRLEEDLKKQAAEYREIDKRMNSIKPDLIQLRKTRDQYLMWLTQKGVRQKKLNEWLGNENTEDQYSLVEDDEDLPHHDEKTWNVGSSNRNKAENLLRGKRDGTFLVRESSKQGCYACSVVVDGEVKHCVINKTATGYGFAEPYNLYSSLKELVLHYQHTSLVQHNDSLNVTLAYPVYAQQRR

Row | Compound | selectivity among PI3Ks / related enzymes (in words) (PI3Kα) | IC50 [1] [µM] | IC50 (CaCo (human colon)) [µM] | IC50 (LoVo (human colon) cells) [µM]
1 | O=c1cc(N2CCOCC2)oc2c(-c3ccccc3)cccc12 [LY294002] | somewhat selective | – | – | –
2 | liphagal | – | 1.58 | 0.67 | 0.58
